Measured values: patent US20230288433A1, “DETECTION OF PHOSPHOINOSITIDES IN BLOOD CELLS AS A BIOMARKER FOR ALPHA SYNUCLEIN ASSOCIATED PATHOLOGIES AND A METHOD OF TREATMENT OF PARKINSON'S DISEASE AND THE RELATED NEURODEGENERATIONS” (YISSUM RESEARCH DEVELOPMENT COMPANY OF THE HEBREW …, priority 2021, published 2023)
Values belong to the compound of their own block, whether it stands above or below them.

Assays:
[1] = tested on: PI3K/AKT pathway; test: Treatments in disease models with inhibitors of the PI3K/AKT pathway
Text: The PI3K/AKT pathway is activated in brains affected with PD and models thereof. Activated PI3K/AKT is exemplified by increases in PI3-Ps, including PI3,4,5P3 and PI3,4P2 that are required for the phosphorylation and activation of AKT phosphorylation at Thr308 and Ser 473. α-Syn is involved in activation of PI3K/AKT pathway. PI3K/AKT activation by α-Syn involves protein palmitoylation. […] Inhibitors of the PI3K/AKT pathway are useful to inhibit α-Syn′ toxicity. These may include Alpelisib and additional inhibitors of PI3K class I that act peripherally not crossing the blood brain barrier (BBB); or GDC-0084 and similar agents that can cross the BBB and act at the central nervous system. Or inhibitors of class II PI3K, for example, HY-151491, HY-151492 or HY-151490.α-Syn enhances PI3K activity by enhancing protein palmitoylation, including Ras palmitoylation that regulates PI3K activity. Class I and class II PI3Ks enzymes harbor a Ras binding domain and thus are affected by α-Syn. Class I and class II PI3Ks enzymes are activated by α-Syn and are targets for PD therapy. Inhibitors for class I and class II PI3Ks may be used for drug repurposing

[2] = tested on: PI3K/AKT pathway; test: PIP3/PIP2 ratio (FACS) and PSer473/total AKT (Western blot) in HepG2 cells expressing α-Syn; format: cell-based; settings: inhibitor 100 nM for 2 hours, combined with CRISPR/CAS for PI3KCA or PI3KCB
Method: FIGS. 25A-25D include vertical bar graphs showing that silencing either PI3KCA or PI3KCB interfere with α-Syn-mediated AKT activation. (25A) HepG2 cells were co-infected with an empty vector (EV) or α-Syn expressing vector together with a CRISPR/CAS vector to silence either PI3KCA (CA, p110α) or PI3KCB (CB, p110β), or a control vector (CT). 72 hours post infection, cells were processed for the detection of PIPs by FACS or analyzed by Western blotting for the detection of AKT. […] (25B) The effect of PIK75 (100 nM, PI3KCA inhibitor) or TGX 221 (100 nM, PIKCB inhibitor) on PIP3/PIP2 ratio (left) or PSer473/total AKT ratio (right) as a function of α-Syn expression. Inhibitors were added for 2 hours before cells were lysed. […] Results are mean±SD of n=3-4 trials.

[3] = tested on: APT1/APT2 depalmitoylases; test: PIP3/PIP2 ratio by FACS in α-Syn expressing HepG2 cells with depalmitoylase inhibitors; format: cell-based; settings: serum starved 4 hours, 10 μM each
Method: ML348 and ML349, inhibit the depalmitoylating enzymes Acyl protein thioesterase 1 and 2 (APT-1, APT-2, respectively). HepG2 cells were infected to express a mock vector (EV) or α-Syn. 5 days post infection, cells were serum starved for 4 hours in the presence of the indicated inhibitors: 2-Bromo-Palmitate (2BP 50 μM, an inhibitor of palmitoylation), ML348 and ML349 (10 μM each). PIP levels determined by FACS as in FIG. 4. The ratio of PI3,4,5P3 (PIP3) to PI4,5P2 (PIP2) is presented. A representative experiment out of n=2 highly similar experiments. Mean±SE of the replicates within one experiment, n>2,000 gated cells.

[4] = tested on: HEK 293T cells; test: 568-Tf (transferrin) endocytosis with the rapamycin-inducible phosphatase; format: cell-based; settings: control cultures without Inp45p expression
Method: (§1) FIGS. 15A-15E include fluorescent micrographs, a micrograph, and graphs showing that the enhancing effect of α-Syn on CME is PI4,5P2 dependent. (15A) HEK 293T cells, transfected to co-express the three plasmids: Lyn-FRB, FKBP-CFP-Inp54p and WT α-Syn. On day of experiment, cells were serum starved for 90 minutes and then incubated for 7 minutes with 568-Tf and rapamycin (500 nM) to induce the recruitment of the Inp45p phosphatase (P-ase) to the plasma membrane along with internalization of 568-Tf. Control cells were treated in parallel with DMSO (0.5% v/v). Cells were then acid-washed, fixed and immunoreacted with anti α-Syn ab (MJFR1; Green). Direct fluorescence for CFP (P-ase; Grey) and 568-Tf (Red). (15B) HEK 293T cells expressing Lyn-FRB and FKBP-CFP-Inp54p were treated either with rapamycin or DMSO as described in (15A), followed by immunoreaction with anti PI4,5P2 ab (Echelon). A quantification of PI4,5P2 signal is shown (n>9 cells per treatment; mean±SE; * P<0.01 t-test). (15C) Graph showing quantification of internalized 568-Tf signal in cells transfected and treated as in (15A). Cells transfected with a mock vector (white bars, squares) or α-Syn (black bars, circles). […] Protein samples were analyzed by a western blot, immunoreacted with anti-Nir2 ab (Abcam). […] Sister cultures were immunoreacted with anti PI4,5P2 ab and analyzed by FACS. […]

[5] = tested on: HEK 293T cells; test: PI4,5P2 levels by ICC after rapamycin-induced recruitment of the Inp45p phosphatase to the plasma membrane; format: cell-based; settings: HEK 293T expressing Lyn-FRB and FKBP-CFP-Inp54p, rapamycin 500 nM; DMSO treated cells set at 100%
Method: as §1

[6] = tested on: muscarinic receptors
Method: To confirm the specificity of the PI4,5P2 signal that the inventors detected using anti PI4,5P2 Ab in cortical neurons, PI4,5P2 signal depletion following phospholipase C (PLC) activation was determined. […] Control cells were conditioned and treated in parallel but without the drug. Cells were fixed and immunoreacted with anti PI4,5P2 ab (FIG. 10A).

[7] = tested on: Numb-associated kinases (NAKs); test: pAP2 (phospho-Thr156 μ2 subunit of AP2) signal by ICC in SK-Mel2 cells; format: cell-based; settings: 10 μM for 3 hours
Method: FIGS. 12A-12H include fluorescent micrographs and graphs showing that α-Syn colocalizes with phosphorylated AP2 and PIP2 on clathrin-coated pits. (12A) SK-Mel2 cells were processed for the detection of the immunoreactive signals of endogenous α-Syn (ab 21976 ab, red), phosphorylated Thr156 μ2 subunit of AP2 (pAP2; gray) and PI4,5P2 (green) by immunocytochemistry (ICC). Bar=10 μm. (12B) SK-Mel2 cells treated with LP-935509 (10 μM, for 3 hours), to inhibit the phosphorylation of the μ2 subunit of AP2 and processed for ICC as in (12A). Bar=[…]. (12C) SK-Mel2 cells infected with lentivirus encoding shSNCA to silence α-Syn expression. Cells were treated with LP-935509 inhibitor as in (12B) and processed for ICC. Bar=[…]. (12D) SK-Mel2 cells as in (12A), however, immunoreacted for PI3,4P2 detection (green). Bar=[…]. […] Cells analyzed by FACS to immunodetect PI4,5P2 levels. […] (12G) Cells analyzed by FACS as in (12F) to detect PI3,4P2 signal. […] Colocalization of the signal obtained for α-Syn with the specified PIP was quantified and normalized to total α-Syn positive spots. […]
Phosphorylation at Thr156 of μ2 subunit of the clathrin adaptor AP2 starts following its binding to PI4,5P2 at the initiation of a CCP and throughout vesicle lifetime. The inventors analyzed SK-Mel2 cells, which express detectable levels of endogenous α-Syn protein. […]

Compound: Cc1cc(C(C)Nc2ccccc2)c2nc(N3CCOCC3)cc(=O)n2c1 (stereo not drawn) [TGX 221]
aberrant activation of the PI3K/AKT pathway by α-Syn [1]: reduce the aberrant activation of this pathway by α-Syn
α-Syn-mediated increases in PI3K/AKT pathway activation (PIP3/PIP2 ratio, PSer473/total AKT) [2]: inhibition of α-Syn-mediated increases in PI3K/AKT pathway activation

Compound: COc1ccc(N2CCN(C(=O)c3cc4c(s3)-c3ccccc3S(=O)(=O)C4)CC2)cc1 [ML349]
effects of α-Syn to enhance PIP3 levels (PIP3 to PIP2 ratio) [3]: interfere with the effects of α-Syn to enhance PIP3 levels

Compound: CO[C@H]1C[C@@H]2CC[C@@H](C)[C@@](O)(O2)C(=O)C(=O)N2CCCC[C@H]2C(=O)O[C@H]([C@H](C)C[C@@H]2CC[C@@H](O)[C@H](OC)C2)CC(=O)[C@H](C)/C=C(\C)[C@@H](O)[C@@H](OC)C(=O)[C@H](C)C[C@H](C)/C=C/C=C/C=C/1C [rapamycin]
α-Syn-induced CME (568-Tf internalization) [4]: no effect
PI4,5P2 levels [5]: 26%

Compound: Cc1ccc([N+](=O)[O-])cc1S(=O)(=O)N(C)/N=C/c1cnc2ccc(Br)cn12 [PIK75]
aberrant activation of the PI3K/AKT pathway by α-Syn [1]: reduce the aberrant activation of this pathway by α-Syn
α-Syn-mediated increases in PI3K/AKT pathway activation (PIP3/PIP2 ratio, PSer473/total AKT) [2]: inhibition of α-Syn-mediated increases in PI3K/AKT pathway activation

Compound: O=C(CN1CCN(C(=O)c2ccco2)CC1)Nc1cc(C(F)(F)F)ccc1Cl [ML348]
effects of α-Syn to enhance PIP3 levels (PIP3 to PIP2 ratio) [3]: interfere with the effects of α-Syn to enhance PIP3 levels

PI4,5P2 signal following PLC activation [6]: loss of PI4,5P2 signal
Compound: CC[C@@H]1C(=O)OC[C@@H]1Cc1cncn1C [pilocarpine]

Compound: NC1(c2ccc(-c3nc4ccn5c(=O)[nH]nc5c4cc3-c3ccccc3)cc2)CCC1 [MK2206]
aberrant activation of the PI3K/AKT pathway by α-Syn [1]: reduce the aberrant activation of this pathway by α-Syn

Compound: COc1ncccc1-c1cnn2ccc(N3CCN(C(=O)OC(C)C)CC3)nc12 [LP-935509]
colocalization of α-Syn and pAP2 [7]: no obvious colocalization
pAP2 signal [7]: dramatically reduced
